# Results from patent US7919493B2, “Anititumoral ecteinascidin derivatives” (Pharma Mar, S.A., priority 2001, dated 2011).
# Tests used:
# Format in all cases: cell-based
# [1] = tested on: P-388 (suspension culture of a lymphoid neoplasm from DBA/2 mouse); assay: Cytotoxic activity screening, P-388 cells; settings: three days of incubation, approximate IC50 vs control growth; for IC50: Mus musculus, P388, 72 h
# Experimental: (§1) Cell Cultures. Cells were maintained in logarithmic phase of growth in Eagle's Minimum Essential Medium, with Earle's Balanced Salts, with 2.0 mM L-glutamine, with non-essential amino acids, without sodium bicarbonate (EMEM/neaa); supplemented with 10% Fetal Calf Serum (FCS), 10^−2 M sodium bicarbonate and 0.1 g/l penicillin-G+streptomycin sulfate.
# (§2) A simple screening procedure has been carried out to determine and compare the antitumour activity of these compounds, using an adapted form of the method described by Bergeron et al (1984). The tumour cell line employed have been P-388 (suspension culture of a lymphoid neoplasm from DBA/2 mouse), A-549 (monolayer culture of a human lung carcinoma), HT-29 (monolayer culture of a human colon carcinoma) and MEL-28 (monolayer culture of a human melanoma).
# P-388 cell were seeded into 16 mm wells at 1×10^4 cells per well in 1 ml aliquots of MEM 5FCS containing the indicated concentration of drug. A separate set of cultures without drug was seeded as control growth to ensure that cells remained in exponential phase of growth. All determinations were carried out in duplicate.
# [2] = tested on: A-549 (monolayer culture of a human lung carcinoma); assay: Cytotoxic activity screening, A-549 cells; settings: three days of incubation, Crystal Violet, approximate IC50; for IC50: Homo sapiens, A549, 72 h
# Experimental: as §1
# (§3) A separate set of cultures without drug was seeded as control growth to ensure that cells remained in exponential phase of growth. All determinations were carried out in duplicate. After three days of incubation at 37° C., 10% CO2 in a 98% humid atmosphere, the wells were stained with 0.1% Crystal Violet. An approximately IC50 was determined by comparing the growth in wells with drug to the growth in wells control.
# [3] = tested on: HT-29 (monolayer culture of a human colon carcinoma); assay: Cytotoxic activity screening, HT-29 cells; settings: three days of incubation, Crystal Violet, approximate IC50; for IC50: Homo sapiens, HT-29, 72 h
# Experimental: as §1, §3
# [4] = tested on: MEL-28 (monolayer culture of a human melanoma); assay: Cytotoxic activity screening, MEL-28 cells; settings: three days of incubation, Crystal Violet, approximate IC50; for IC50: Homo sapiens, SK-MEL-28, 72 h
# Experimental: as §1, §2
# as §3, with “A-549, HT-29 and MEL-28 were seeded into 16 mm wells at 2×10^4 cells per well in 1 ml aliquots of MEM 10FCS containing the indicated concentration of drug. A separate” for “A separate”
# DU-145 = assay: Cytotoxic activity screening, DU-145 cells; settings: for IC50: Homo sapiens, DU-145, DU-145 cells
# Experimental: [The source words this procedure for another cell line and reports this cell line under the same test.] as §1, §2
# Examples of biological activities of the compounds described in the present application are in Table IV (IC50 (ng/mL)) on the following pages.
Structure (SMILES),IC50 [1] [ng/mL],IC50 [2] [ng/mL],IC50 [3] [ng/mL],IC50 [4] [ng/mL],IC50 (DU-145) [ng/mL],IC50 P-388 [1],IC50 A-549 [2],IC50 HT-29 [3],IC50 MEL-28 [4],IC50 DU-145 (DU-145; DU-145 cells)
COc1c(C)cc2c(c1O)[C@@H]1C3[C@@H]4SC[C@H](NC(=O)C(F)(F)F)C(=O)OC[C@@H](c5c6c(c(C)c(OC(C)=O)c54)OCO6)N3[C@@H](O)[C@H](C2)N1C (stereo in doubt) [Compound 4b],0.5,0.5,0.5,0.5,0.5,,,,,
COc1c(C)cc2c(c1O)[C@@H]1C3[C@@H]4SC[C@H](NC(=O)/C=C/c5ccccc5)C(=O)OC[C@@H](c5c6c(c(C)c(OC(C)=O)c54)OCO6)N3[C@@H](O)[C@H](C2)N1C (stereo in doubt) [Compound 4h],0.5,0.5,0.5,0.5,0.5,,,,,
COc1c(C)cc2c(c1O)[C@@H]1C3[C@@H]4SC[C@@H](NC(C)=O)C(=O)OC[C@@H](c5c6c(c(C)c(OC(C)=O)c54)OCO6)N3[C@@H](C#N)[C@H](C2)N1C (stereo partly drawn) [Compound 3a],0.5,0.5,0.5,0.5,0.5,,,,,
COc1c(C)cc2c(c1O)[C@@H]1C3[C@@H]4SC[C@H](NC(=O)C(F)(F)F)C(=O)OC[C@@H](c5c6c(c(C)c(OC(C)=O)c54)OCO6)N3[C@@H](C#N)[C@H](C2)N1C (stereo partly drawn) [Compound 3b],1,1,1,1,1,,,,,
CCCC(=O)N[C@H]1CS[C@@H]2c3c(OC(C)=O)c(C)c4c(c3[C@H](COC1=O)N1C2[C@H]2c3c(cc(C)c(OC)c3O)C[C@@H]([C@@H]1C#N)N2C)OCO4 (stereo partly drawn) [Compound 3c],0.1,0.1,0.1,0.1,0.1,,,,,
COc1c(C)cc2c(c1O)[C@@H]1C3[C@@H]4SC[C@H](NC(=O)CC(C)C)C(=O)OC[C@@H](c5c6c(c(C)c(OC(C)=O)c54)OCO6)N3[C@@H](C#N)[C@H](C2)N1C (stereo partly drawn) [Compound 3d],0.1,0.1,0.1,0.1,0.1,,,,,
CCCCCCCC(=O)N[C@H]1CS[C@@H]2c3c(OC(C)=O)c(C)c4c(c3[C@H](COC1=O)N1C2[C@H]2c3c(cc(C)c(OC)c3O)C[C@@H]([C@@H]1C#N)N2C)OCO4 (stereo partly drawn) [Compound 3e],1,1,1,1,1,,,,,
CCCCCCCCCCCCCCCC(=O)N[C@H]1CS[C@@H]2c3c(OC(C)=O)c(C)c4c(c3[C@H](COC1=O)N1C2[C@H]2c3c(cc(C)c(OC)c3O)C[C@@H]([C@@H]1C#N)N2C)OCO4 (stereo partly drawn) [Compound 3f],,,,,,>1-10^3 ng/mL,>1-10^3 ng/mL,>1-10^3 ng/mL,>1-10^3 ng/mL,>1-10^3 ng/mL
COc1c(C)cc2c(c1O)[C@@H]1C3[C@@H]4SC[C@H](NC(=O)c5ccccc5)C(=O)OC[C@@H](c5c6c(c(C)c(OC(C)=O)c54)OCO6)N3[C@@H](C#N)[C@H](C2)N1C (stereo partly drawn) [Compound 3g],0.1,0.1,0.1,0.1,0.1,,,,,
COc1c(C)cc2c(c1O)[C@@H]1C3[C@@H]4SC[C@H](NC(=O)/C=C/c5ccccc5)C(=O)OC[C@@H](c5c6c(c(C)c(OC(C)=O)c54)OCO6)N3[C@@H](C#N)[C@H](C2)N1C (stereo partly drawn) [Compound 3h],0.5,0.5,0.5,0.5,0.5,,,,,
COc1c(C)cc2c(c1O)[C@@H]1C3[C@@H]4SC[C@H](NC(=O)/C=C/c5ccc(C(F)(F)F)cc5)C(=O)OC[C@@H](c5c6c(c(C)c(OC(C)=O)c54)OCO6)N3[C@@H](C#N)[C@H](C2)N1C (stereo partly drawn) [Compound 3i],5,5,5,5,5,,,,,
COc1c(C)cc2c(c1O)[C@@H]1C3[C@@H]4SC[C@H](N5C(=O)c6ccccc6C5=O)C(=O)OC[C@@H](c5c6c(c(C)c(OC(C)=O)c54)OCO6)N3[C@@H](C#N)[C@H](C2)N1C (stereo partly drawn) [Compound 3j],5,5,5,5,5,,,,,
